Test results taken from patent US20050209256A1, “Novel beta-turn mimetics as calcitonin gene related peptide receptor antagonists” (priority 2004, published 2005).
pIC50: −log10 of the molar value.

target: T1, human CGRP receptor (Homo sapiens, UniProt O60894+Q16602); assay: Radioligand binding assay, [125I]-CGRP competition on SK-N-MC cell homogenates; settings: Binding data, [125I]-CGRP 40 pM, room temperature
T1 construct: SK-N-MC cells that endogenously express the human CGRP receptor; endogenous in cells; host or cells: SK-N-MC cells (membrane homogenates)
Procedure: Tissue culture. SK-N-MC cells were grown at 37° C. in 5% CO2 as a monolayer in medium consisting of MEM with Earle's salts and L-glutamine (Gibco) supplemented with 10% fetal bovine serum (Gibco).
Radioligand binding assays. Cells were rinsed twice with phosphate-buffered saline (155 mM NaCl, 3.3 mM Na2HPO4, 1.1 mM KH2PO4, pH 7.4), and incubated for 5-10 min. at 4° C. in hypotonic lysis buffer consisting of 10 mM Tris (pH 7.4) and 5 mM EDTA. Cells were transferred from plates to polypropylene tubes (16×100 mm), homogenized and centrifuged at 32,000×g for 30 min. Pellets were resuspended in buffer consisting of 50 mM Tris (pH 7.4) and 1 mM EDTA, homogenized, and centrifuged again at 32,000×g for 30 min. Pellets were resuspended in 100 mM Tris-Cl pH 7.5, 10 mM MgCl2, 0.1% mammalian protease inhibitor cocktail (Sigma) and stored at −80° C. until needed. On the day of an experiment, homogenates were thawed and homogenized again. Binding of [^125I]-CGRP (NEN) was carried out in buffer containing 50 mM Tris-Cl pH 7.5, 5 mM MgCl2, 0.5% BSA. Homogenates (3.5 μg protein/well) were incubated with competitor compounds (solubilized in 100% DMSO at 100× their final assay concentrations) for one hour at room temperature. Then [^125I]-CGRP was added (40 pM final concentration) and the reaction incubated for one additional hour at room temperature. Assays were stopped by addition of cold wash buffer (20 mM Tris-Cl pH 7.5, 0.1% BSA) immediately followed by filtration over glass fiber filters (Whatman GF/B) previously soaked in 0.5% PEI. Non-specific binding was defined with 100 nM CGRP.

Row | Compound | pIC50
1 | CC(=O)c1ccc(NC(=O)N2CCC(=O)N3[C@@H]2CN(CCc2cccc(F)c2)C(=O)[C@@H]3CC[S+](C)[O-])cc1 (mixture of isomers) [Compound 42, (6S,9aS)-8-[2-(3-Fluoro-phenyl)-ethyl]-6-(2-methanesulfinyl-ethyl)-4,7-dioxo-hexahydro-pyrazino [1,2-a]pyrimidine-1-carboxylic acid (4-acetyl-phenyl)-amide] | 6.11
2 | CSCC1C(=O)N(CCc2cccc(F)c2)C[C@@H]2N(C(=O)Nc3ccc(C(C)=O)cc3)CCC(=O)N12 (stereo in doubt) [Compound 37, (6S,9aS)-8-[2-(3-Fluoro-phenyl)-ethyl]-6-methylsulfanylmethyl-4,7-dioxo-hexahydro-pyrazino[1,2-a]pyrimidine-1-carboxylic acid (4-acetyl-phenyl)-amide] | 6.15
3 | CC(=O)c1ccc(NC(=O)N2CCC(=O)N3C(C[S+]([O-])Cc4ccccc4)C(=O)N(CCc4cccc(F)c4)C[C@H]23)cc1 (stereo in doubt) [Compound 44, (6S,9aS)-8-[2-(3-Fluoro-phenyl)-ethyl]-4,7-dioxo-6-phenylmethanesulfinylmethyl-hexahydro-pyrazino[1,2-a]pyrimidine-1-carboxylic acid (4-acetyl-phenyl)-amide] | 5.46
4 | CC(=O)c1ccc(NC(=O)N2CCC(=O)N3C(CS(=O)(=O)Cc4ccccc4)C(=O)N(CCc4cccc(F)c4)C[C@H]23)cc1 (stereo in doubt) [Compound 45, (6S,9aS)-8-[2-(3-Fluoro-phenyl)-ethyl]-4,7-dioxo-6-phenylmethanesulfonylmethyl-hexahydro-pyrazino[1,2-a]pyrimidine-1-carboxylic acid (4-acetyl-phenyl)-amide] | 5.71
5 | CSc1ccc(NC(=O)N2CCC(=O)N3[C@@H](C4CCCCC4)C(=O)N(CCc4ccccc4)C[C@H]23)cc1 [Compound 19, (6S,9aS)-6-Cyclohexyl-4,7-dioxo-8-phenethyl-hexahydro-pyrazino[1,2-a]pyrimidine-1-carboxylic acid (4-methylsulfanyl-phenyl)-amide] | 5.10
6 | CC(=O)c1ccc(NC(=O)N2CCC(=O)N3[C@@H](C(C)C)C(=O)N(CCc4cccc(F)c4)C[C@H]23)cc1 [Compound 20, (6S,9aS)-8-[2-(3-Fluoro-phenyl)-ethyl]-6-isopropyl-4,7-dioxo-hexahydro-pyrazino[1,2-a]pyrimidine-1-carboxylic acid (4-acetyl-phenyl)-amide] | 6.04
7 | CC(=O)c1ccc(NC(=O)N2CCC(=O)N3[C@@H]2CN(CCc2cccc(F)c2)C(=O)[C@@H]3Cc2ccccc2)cc1 [Compound 22, (6S,9aS)-6-Benzyl-8-[2-(3-fluoro-phenyl)-ethyl]-4,7-dioxo-hexahydro-pyrazino[1,2-a]pyrimidine-1-carboxylic acid (4-acetyl-phenyl)-amide] | 5.66
8 | CC(=O)c1ccc(NC(=O)N2CCC(=O)N3[C@@H]2CN(CCc2cccc(F)c2)C(=O)[C@@H]3C)cc1 [Compound 25, (6S,9aS)-8-[2-(3-Fluoro-phenyl)-ethyl]-6-methyl-4,7-dioxo-hexahydro-pyrazino[1,2-a]pyrimidine-1-carboxylic acid (4-acetyl-phenyl)-amide] | 4.52
9 | CC(=O)c1ccc(NC(=O)N2CCC(=O)N3[C@@H]2CN(CCc2cccc(F)c2)C(=O)[C@@H]3Cc2ccc([N+](=O)[O-])cc2)cc1 [Compound 27, (6S,9aS)-8-[2-(3-Fluoro-phenyl)-ethyl]-6-(4-nitro-benzyl)-4,7-dioxo-hexahydro-pyrazino[1,2-a]pyrimidine-1-carboxylic acid (4-acetyl-phenyl)-amide] | 5.88
10 | CC(=O)c1ccc(NC(=O)N2CCC(=O)N3[C@@H]2CN(CCc2cccc(F)c2)C(=O)[C@@H]3CC(=O)OCc2ccccc2)cc1 [Compound 30, {1-(4-Acetyl-phenylcarbamoyl)-(6S,9aS)-8-[2-(3-fluoro-phenyl)-ethyl]-4,7-dioxo-octahydro-pyrazino [1,2-a]pyrimidin-6-yl}-acetic acid benzyl ester] | 5.66
11 | CC(=O)c1ccc(NC(=O)N2CCC(=O)N3[C@@H]2CN(CCc2cccc(F)c2)C(=O)[C@@H]3CCCCNC(=O)OCc2ccccc2)cc1 [Compound 31, (4-{1-(4-Acetyl-phenylcarbamoyl)-(6S,9aS)-8-[2-(3-fluoro-phenyl)-ethyl]-4,7-dioxo-octahydro-pyrazino[1,2-a]pyrimidin-6-yl}-butyl)-carbamic acid benzyl ester] | 5.98

The next compounds have a higher pIC50 than those just listed; values first:

Row | pIC50 | Compound
12 | 6.38 | CS(=O)(=O)c1ccc(NC(=O)N2CCC(=O)N3[C@@H](C4CCCCC4)C(=O)N(CCc4ccccc4)C[C@H]23)cc1 [Compound 17, (6S,9aS)-6-Cyclohexyl-4,7-dioxo-8-phenethyl-hexahydro-pyrazino[1,2a]pyrimidine-1-carboxylic acid (4-methanesulfonyl-phenyl)-amide]
13 | 6.53 | C[S+]([O-])c1ccc(NC(=O)N2CCC(=O)N3[C@@H](C4CCCCC4)C(=O)N(CCc4ccccc4)C[C@H]23)cc1 (stereo partly drawn) [Compound 18, (6S,9aS)-6-Cyclohexyl-4,7-dioxo-8-phenethyl-hexahydro-pyrazino[1,2a]pyrimidine-1-carboxylic acid (4-methanesulfinyl-phenyl)-amide]
14 | 6.61 | CCSCC1C(=O)N(CCc2cccc(F)c2)C[C@@H]2N(C(=O)Nc3ccc(C(C)=O)cc3)CCC(=O)N12 (stereo in doubt) [Compound 35, (6S,9aS)-6-Ethylsulfanylmethyl-8-[2-(3-fluoro-phenyl)-ethyl]-4,7-dioxo-hexahydro-pyrazino[1,2-a]pyrimidine-1-carboxylic acid (4-acetyl-phenyl)-amide]
15 | 6.63 | CC(=O)c1ccc(NC(=O)N2CCC(=O)N3C(CSCc4ccccc4)C(=O)N(CCc4cccc(F)c4)C[C@H]23)cc1 (stereo in doubt) [Compound 41, (6S,9aS)-6-Benzylsulfanylmethyl-8-[2-(3-fluoro-phenyl)-ethyl]-4,7-dioxo-hexahydro-pyrazino [1,2-a]pyrimidine-1-carboxylic acid (4-acetyl-phenyl)-amide]
16 | 6.63 | CC[C@H](C)[C@H]1C(=O)N(CCc2cccc(F)c2)C[C@@H]2N(C(=O)Nc3ccc(C(C)=O)cc3)CCC(=O)N12 [Compound 21, (6S,9aS)-6-(1S-Methyl-propyl)-8-[2-(3-fluoro-phenyl)-ethyl]-4,7-dioxo-hexahydro-pyrazino[1,2-a]pyrimidine-1-carboxylic acid (4-acetyl-phenyl)-amide]
17 | 6.67 | CSCC[C@H]1C(=O)N(CCc2cccc(F)c2)C[C@@H]2N(C(=O)Nc3ccc(C(C)=O)cc3)CCC(=O)N21 [Compound 24, (6S,9aS)-8-[2-(3-Fluoro-phenyl)-ethyl]-6-(2-methylsulfanyl-ethyl)-4,7-dioxo-hexahydro-pyrazino[1,2-a]pyrimidine-1-carboxylic acid (4-acetyl-phenyl)-amide]
18 | 6.72 | CC[C@H](C)[C@H]1C(=O)N(CCc2cccc(F)c2)C[C@@H]2N(C(=O)Nc3ccc(C(C)=O)cc3)CCC(=O)N12 (stereo in doubt) [Compound 47, (6S,9aS)-6-(1R-Methyl-propyl)-8-[2-(3-fluoro-phenyl)-ethyl]-(S,S)-4,7-dioxo-hexahydro-pyrazino[1,2-a]pyrimidine-1-carboxylic acid (4-acetyl-phenyl)-amide]
19 | 6.73 | CC(=O)c1ccc(NC(=O)N2CCC(=O)N3[C@@H]2CN(CCc2cccc(F)c2)C(=O)[C@@H]3CC2CCCCC2)cc1 [Compound 28, (6S,9aS)-6-Cyclohexylmethyl-8-[2-(3-fluoro-phenyl)-ethyl]-4,7-dioxo-hexahydro-pyrazino[1,2-a]pyrimidine-1-carboxylic acid (4-acetyl-phenyl)-amide]
20 | 6.74 | CC(=O)c1ccc(NC(=O)N2CCC(=O)N3[C@@H]2CN(CCc2cccc(F)c2)C(=O)[C@@H]3CC(C)C)cc1 [Compound 23, (6S,9aS)-8-[2-(3-Fluoro-phenyl)-ethyl]-6-isobutyl-4,7-dioxo-hexahydro-pyrazino[1,2-a]pyrimidine-1-carboxylic acid (4-acetyl-phenyl)-amide]
21 | 6.93 | CCCC[C@H]1C(=O)N(CCc2cccc(F)c2)C[C@@H]2N(C(=O)Nc3ccc(C(C)=O)cc3)CCC(=O)N21 [Compound 26, (6S,9aS)-6-Butyl-8-[2-(3-fluoro-phenyl)-ethyl]-4,7-dioxo-hexahydro-pyrazino[1,2-a]pyrimidine-1-carboxylic acid (4-acetyl-phenyl)-amide]
22 | 7.10 | CC(=O)c1ccc(NC(=O)N2CCC(=O)N3[C@@H](C4CCCCC4)C(=O)N(CCc4ccccc4)C[C@H]23)cc1 [Compound 1, (6S,9aS)-6-Cyclohexyl-4,7-dioxo-8-phenethyl-hexahydro-pyrazino[1,2-a]pyrimidine-1-carboxylic acid (4-acetyl-phenyl)-amide]
